# Assay results as given in patent US7153869B2, “Substituted amino acids as erythropoietin mimetics” (priority 1998, dated 2006).
# pIC50: −log10 of the molar value. Like-named read-outs stand apart in the source and are kept apart here.
# Biological target: T1, EBP-Ig (N-terminal 225 amino acids of the human EPO receptor joined to an Ig heavy chain) (Homo sapiens, UniProt P19235)
# T1 construct: Ig heavy chain (fusion partner); made in house; host or cells: NSO cells (secreted into conditioned media)
# T1 sequence (P19235 25-250 limits assumed): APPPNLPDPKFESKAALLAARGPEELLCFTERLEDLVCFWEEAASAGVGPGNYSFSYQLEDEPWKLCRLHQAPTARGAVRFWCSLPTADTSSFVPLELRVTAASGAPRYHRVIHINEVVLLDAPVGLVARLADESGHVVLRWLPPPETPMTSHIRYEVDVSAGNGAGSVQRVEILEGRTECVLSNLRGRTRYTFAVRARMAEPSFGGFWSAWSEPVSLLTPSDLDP
# Assay: Inhibition of [125I]EPO binding to immobilized EBP-Ig (EPO binding protein-Ig), scintillation Flash plate competition assay
# Settings: for IC30 μM (Inhibition of EPO binding to EBP-Ig) / IC50 / % inh @ 50 μM (Inhibition of EPO binding to EBP-Ig): 0.5 nM [125I]EPO; for IC30 μM (Inhibition of EPO binding to EBP-Ig): 0–500 μM test compound; for IC50: read-out: IC50, μM (Inhibition of EPO binding to EBP-Ig), concentration reducing corrected total binding to 50%; for % inh @ 50 μM (Inhibition of EPO binding to EBP-Ig): 50 μM test compound, average % inhibition
# [1] = read-out: % inh @ 50 μM (Inhibition of EPO binding to EBP-Ig)
# [2] = read-out: EPO/EBP-Ig % inh @ 50 μM, Table 7, 50 μM
smiles,measurement,setting,value
O=C(O)C(F)(F)F.O=C(O)[C@H](CO)NC/C=C/c1cccc(Oc2cccc(C(F)(F)F)c2)c1 [compound 350],EPO/EBP-Ig % inh @ 50 μM,"50 μM compound, Table 20A",23%
CC(C)(C)OC(=O)CC(C(=O)OC(C)(C)C)N(C/C=C/c1cccc(Oc2ccccc2)c1)Cc1cccc(Oc2ccccc2)c1 (stereo not shown) [compound 76],EPO/EBP-Ig % inh @ 50 μM,"Table 5, 50 μM",25%
"O=C(O)C(CO)NCC=Cc1cccc(Oc2ccccc2)c1 (stereo not shown) [cpd 347, N-(3-phenoxycinnamyl)Ser-OH]",EPO/EBP-Ig % inh @ 50 μM,"50 μM compound, Table 20A",23%
COc1ccc(CCNC(=O)C(CCCCNC(=O)Nc2ccc(Oc3ccccc3)cc2)N(C/C=C/c2cccc(Oc3ccccc3)c2)C/C=C/c2cccc(Oc3ccccc3)c2)cc1 (stereo not shown) [compound 232],EPO/EBP-Ig % inh @ 50 μM,"50 μM compound, Table 10",14%
NC(=O)C[C@H](NC/C=C/c1ccc(C(F)(F)F)cc1)C(=O)O.O=C(O)C(F)(F)F [compound 367],EPO/EBP-Ig % inh @ 50 μM,50 μM compound,0%
CC(C)(C)OC(=O)NCCCCC(C(=O)NCCCOCCOCCOCCCNC(=O)C(CCCCNC(=O)OC(C)(C)C)N(Cc1ccc(OCc2ccccc2)cc1)Cc1ccc(OCc2ccccc2)cc1)N(Cc1ccc(OCc2ccccc2)cc1)Cc1ccc(OCc2ccccc2)cc1 (stereo not shown) [compound 257],EPO/EBP-Ig % inh @ 50 μM,"50 μM compound, Table 13",−26%
COC(=O)[C@H](CCCCNC(=O)OCc1ccccc1)NC/C=C/c1ccc(C(=O)O)cc1 [compound 323],EPO/EBP-Ig % inh @ 50 μM,"50 μM compound, Table 18A",6%
COC(=O)[C@H](COC(C)(C)C)N(C/C=C/c1ccccc1)C/C=C/c1ccccc1 [compound 306],EPO/EBP-Ig % inh @ 50 μM,"50 μM compound, Table 16A",21%
O=C(NCCCC[C@H](NC/C=C/c1ccc(C(F)(F)F)cc1)C(=O)O)OCc1ccccc1Cl.O=C(O)C(F)(F)F [compound 313],EPO/EBP-Ig % inh @ 50 μM,"50 μM compound, Table 18A",28%
COC(=O)C(CCC(=O)O)N(C/C=C/c1cccs1)C/C=C/c1cccs1 (stereo not shown) [compound 61],EPO/EBP-Ig % inh @ 50 μM,"Table 3, 50 μM",14%
O=C(O)C(CO)N(CC=Cc1ccc(-c2ccccc2)cc1)CC=Cc1ccc(-c2ccccc2)cc1 (stereo not shown) [compound 305],IC30 μM (Inhibition of EPO binding to EBP-Ig),,35 µM
same,inhibition at 50 µM,[1],48%
same,inhibition at 50 µM,"read-out: EPO/EBP-Ig % inh @ 50 μM, 50 μM compound, Table 16A",48%
same,IC50,,225 µM
CC(C)(C)c1ccc(Oc2cccc(/C=C/CN(C/C=C/c3cccc(Oc4ccc(C(C)(C)C)cc4)c3)[C@@H](CO)C(=O)O)c2)cc1.O=C(O)C(F)(F)F [compound 309],EPO/EBP-Ig % inh @ 50 μM,"50 μM compound, Table 16A",13%
CC(C)(C)OC[C@@H](C(=O)O)N(C/C=C/c1ccc(-c2ccccc2)cc1)C/C=C/c1ccc(-c2ccccc2)cc1 [compound 301],EPO/EBP-Ig % inh @ 50 μM,"50 μM compound, Table 16A",25%
COC(=O)C(CCCCN)N(Cc1ccc(OCc2ccccc2)cc1)Cc1ccc(OCc2ccccc2)cc1 (stereo not shown) [compound 110],IC30 μM (Inhibition of EPO binding to EBP-Ig),,6 µM
same,inhibition at 50 µM,[1],54%
same,inhibition at 50 µM,[2],54%
CC(C)(C)OC(=O)NCCCCC(C(=O)NCCCOCCCCOCCCNC(=O)C(CCCCNC(=O)OC(C)(C)C)N(Cc1ccc(OCc2ccccc2)cc1)Cc1ccc(OCc2ccccc2)cc1)N(Cc1ccc(OCc2ccccc2)cc1)Cc1ccc(OCc2ccccc2)cc1 (stereo not shown) [compound 258],EPO/EBP-Ig % inh @ 50 μM,"50 μM compound, Table 13",−24%
"O=C(O)CCC(NCC=Cc1cccc(Oc2ccccc2)c1)C(=O)O (stereo not shown) [cpd 326, N-(3-Phenoxycinnamyl)Glu-OH]",EPO/EBP-Ig % inh @ 50 μM,"50 μM compound, Table 19A",0%
O=C(O)CC(C(=O)O)N(Cc1cccc(NCc2ccccc2F)c1)Cc1cccc(Oc2ccccc2)c1 (stereo not shown) [compound 68],EPO/EBP-Ig % inh @ 50 μM,"Table 4, 50 μM",−13%
COC(=O)C(CCCCNC(=O)OC(C)(C)C)N(C/C=C/c1cccc([N+](=O)[O-])c1)C/C=C/c1cccc([N+](=O)[O-])c1 (stereo not shown) [compound 183],EPO/EBP-Ig % inh @ 50 μM,"50 μM compound, Table 9",36%
same,% inh @ 50 μM (Inhibition of EPO binding to EBP-Ig),,36%
COC(=O)[C@H](CO)NC/C=C/c1ccc(-c2ccccc2)cc1.O=C(O)C(F)(F)F [compound 342],EPO/EBP-Ig % inh @ 50 μM,"50 μM compound, Table 20A",0%
NCCCCC(C(=O)NCCc1ccccc1)N(C/C=C/c1cccc(Oc2ccccc2)c1)C/C=C/c1cccc(Oc2ccccc2)c1 (stereo not shown) [compound 239],IC30 μM (Inhibition of EPO binding to EBP-Ig),,8 µM
same,EPO/EBP-Ig % inh @ 50 μM,"50 μM compound, Table 10",46%
same,% inh @ 50 μM (Inhibition of EPO binding to EBP-Ig),,46%
same,IC50,,50 µM
CC(C)(C)OC(=O)NCCCCC(C(=O)NCc1ccc(OCC=Cc2ccccc2)cc1)N(CC=Cc1ccccc1)CC=Cc1ccccc1 (stereo not shown) [compound 216],EPO/EBP-Ig % inh @ 50 μM,"50 μM compound, Table 10",10%
CC(=O)O.COC(=O)[C@H](CO)N(C/C=C/c1ccccc1)C/C=C/c1ccccc1 [compound 310],EPO/EBP-Ig % inh @ 50 μM,"50 μM compound, Table 16A",34%
CCOC(=O)CCC(C(=O)OC)N(C/C=C/c1ccccc1)C/C=C/c1ccccc1 (stereo not shown) [compound 94],EPO/EBP-Ig % inh @ 50 μM,"Table 6, 50 μM",25%
CC(=O)O.COC(=O)c1cccc(C=CCNC(CCCCNC(=O)OCc2ccccc2)C(=O)OC)c1 (stereo not shown) [compound 321],IC30 μM (Inhibition of EPO binding to EBP-Ig),,45 µM
same,EPO/EBP-Ig % inh @ 50 μM,"50 μM compound, Table 18A",42%
same,% inh @ 50 μM (Inhibition of EPO binding to EBP-Ig),,42%
CC(C)(CC(=O)O)CC(=O)NCCCCC(C(=O)NCCCCCCCCCCCCNC(=O)C(CCCCNC(=O)CC(C)(C)CC(=O)O)N(Cc1ccc(OCc2ccccc2)cc1)Cc1ccc(OCc2ccccc2)cc1)N(Cc1ccc(OCc2ccccc2)cc1)Cc1ccc(OCc2ccccc2)cc1 (stereo not shown) [compound 268],EPO/EBP-Ig % inh @ 50 μM,"50 μM compound, Table 13",40%
same,% inh @ 50 μM (Inhibition of EPO binding to EBP-Ig),,40%
COC(=O)C(CCCCNC(=O)OC(C)(C)C)N(C/C=C/c1ccc([N+](=O)[O-])cc1)C/C=C/c1ccc([N+](=O)[O-])cc1 (stereo not shown) [compound 178],EPO/EBP-Ig % inh @ 50 μM,"50 μM compound, Table 9",36%
same,% inh @ 50 μM (Inhibition of EPO binding to EBP-Ig),,36%
COC(=O)C(CCCCN)N(Cc1ccc(OCc2ccccc2)cc1)Cc1cccc(NC(=O)c2ccc(C)cc2)c1 (stereo not shown) [compound 118],pIC50,,5.00
same,IC30 μM (Inhibition of EPO binding to EBP-Ig),,2 µM
same,inhibition at 50 µM,[1],36%
same,inhibition at 50 µM,[2],36%
"CC(C)(C)OC(=O)CCC(C(=O)NCCOCCOCCNC(=O)C(CCC(=O)OC(C)(C)C)N(Cc1ccc(OCc2ccccc2)cc1)Cc1ccc(OCc2ccccc2)cc1)N(Cc1ccc(OCc2ccccc2)cc1)Cc1ccc(OCc2ccccc2)cc1 (stereo not shown) [cpd 245, [N,N-bis(4-Benzyloxybenzyl)Glu(O-t-Bu)-NHCH2CH2OCH2]2]",EPO/EBP-Ig % inh @ 50 μM,"Table 11, 50 μM",0%
COC(=O)C(CCCCN)N(Cc1ccc(OCc2ccccc2)cc1)Cc1cccc(N)c1 (stereo not shown) [compound 115],inhibition at 50 µM,[1],35%
same,inhibition at 50 µM,[2],35%
CC(=O)O.COC(=O)[C@H](CO)N(C/C=C/c1cccc(Oc2ccc(Cl)c(Cl)c2)c1)C/C=C/c1cccc(Oc2ccc(Cl)c(Cl)c2)c1 [compound 296],EPO/EBP-Ig % inh @ 50 μM,"50 μM compound, Table 16A",0%
O=C(O)CN(C/C=C/c1cccc(Oc2ccccc2)c1)C/C=C/c1cccc(Oc2ccccc2)c1 [compound 312],IC30 μM (Inhibition of EPO binding to EBP-Ig),,10 µM
same,inhibition at 50 µM,[1],45%
same,inhibition at 50 µM,"read-out: EPO/EBP-Ig % inh @ 50 μM, 50 μM compound, Table 17A",45%
same,IC50,,85 µM
COC(=O)C(CCCCN)N(C/C=C/c1cccc(Oc2ccc(C(C)(C)C)cc2)c1)C/C=C/c1cccc(Oc2ccc(C(C)(C)C)cc2)c1 (stereo not shown) [compound 182],EPO/EBP-Ig % inh @ 50 μM,"50 μM compound, Table 9",18%
COc1ccc(CCNC(=O)C(CCCCN)N(CC=Cc2ccccc2)CC=Cc2ccccc2)cc1 (stereo not shown) [compound 211],IC30 μM (Inhibition of EPO binding to EBP-Ig),,20 µM
same,inhibition at 50 µM,[1],62%
same,inhibition at 50 µM,"read-out: EPO/EBP-Ig % inh @ 50 μM, 50 μM compound, Table 10",62%
same,IC50,,65 µM
"COC(=O)C(COC(C)(C)C)NCC=Cc1cccc(Oc2ccccc2)c1 (stereo not shown) [cpd 352, N-(3-phenoxycinnamyl)Ser(t-Bu)-OMe]",EPO/EBP-Ig % inh @ 50 μM,"50 μM compound, Table 20A",8%
O=C(O)CC(C(=O)O)N(CC=Cc1cccs1)CC=Cc1cccs1 (stereo not shown) [compound 53],EPO/EBP-Ig % inh @ 50 μM,"Table 3, 50 μM",14%
COC(=O)[C@H](CCC(=O)O)NC/C=C/c1ccc(-c2ccccc2)cc1.O=C(O)C(F)(F)F [compound 327],EPO/EBP-Ig % inh @ 50 μM,"50 μM compound, Table 19A",11%
CC(=O)O.COC(=O)c1cccc(C=CCNC(C(=O)OC)C(C)C)c1 (stereo not shown) [compound 371],EPO/EBP-Ig % inh @ 50 μM,50 μM compound,16%
CC(C)(C)c1ccc(Oc2cccc(/C=C/CN(C/C=C/c3cccc(Oc4ccc(C(C)(C)C)cc4)c3)C(CCC(=O)O)C(=O)O)c2)cc1 (stereo not shown) [compound 104],IC30 μM (Inhibition of EPO binding to EBP-Ig),,10 µM
same,% inh @ 50 μM (Inhibition of EPO binding to EBP-Ig),,78%
same,EPO/EBP-Ig % inh @ 50 μM,"Table 6, 50 μM",78%
same,IC50,,30 µM
COC(=O)[C@H](CO)NC/C=C/c1cccc(Oc2ccc(C(C)(C)C)cc2)c1.O=C(O)C(F)(F)F [compound 343],EPO/EBP-Ig % inh @ 50 μM,"50 μM compound, Table 20A",37%
COC(=O)[C@H](COC(C)(C)C)NC/C=C/c1ccc(-c2ccccc2)cc1 [compound 353],EPO/EBP-Ig % inh @ 50 μM,"50 μM compound, Table 20A",24%
O=C(O)CCCC(=O)NCCCCC(C(=O)NCCOCCOCCNC(=O)C(CCCCNC(=O)CCCC(=O)O)N(Cc1ccc(OCc2ccccc2)cc1)Cc1ccc(OCc2ccccc2)cc1)N(Cc1ccc(OCc2ccccc2)cc1)Cc1ccc(OCc2ccccc2)cc1 (stereo not shown) [compound 263],IC30 μM (Inhibition of EPO binding to EBP-Ig),,1 µM
same,EPO/EBP-Ig % inh @ 50 μM,"50 μM compound, Table 13",88%
same,% inh @ 50 μM (Inhibition of EPO binding to EBP-Ig),,88%
same,IC50,,1.5 µM
"COC(=O)C(CCCCNC(=O)OC(C)(C)C)N(Cc1ccc(OCc2ccccc2)cc1)Cc1cccc([N+](=O)[O-])c1 (stereo not shown) [cpd 113, N-(4-Benzyloxybenzyl)-N-(3-nitrobenzyl)Lys(Boc)-OMe]",EPO/EBP-Ig % inh @ 50 μM,"Table 7, 50 μM",24%
COc1ccc(CCNC(=O)C(CCCCNC(=O)OC(C)(C)C)N(C/C=C/c2cccc(Oc3ccccc3)c2)C/C=C/c2cccc(Oc3ccccc3)c2)cc1 (stereo not shown) [compound 225],EPO/EBP-Ig % inh @ 50 μM,"50 μM compound, Table 10",10%
CC(C)[C@H](NC/C=C/c1ccc(C(F)(F)F)cc1)C(=O)O.O=C(O)C(F)(F)F [compound 370],EPO/EBP-Ig % inh @ 50 μM,50 μM compound,0%
